Laboratory results taken from patent publication US12692221B2 (priority 2024, dated 2026).

Tests used:
[1] = molecular target: T1, alpha2A (h) (Homo sapiens, UniProt P08913); assay: Radioligand binding alpha2A (h) (antagonist radioligand), [^3H]RX 821002, CHO cells
T1 construct: expressed in transfected cells; host or cells: CHO cells
T1 sequence (P08913 1-465): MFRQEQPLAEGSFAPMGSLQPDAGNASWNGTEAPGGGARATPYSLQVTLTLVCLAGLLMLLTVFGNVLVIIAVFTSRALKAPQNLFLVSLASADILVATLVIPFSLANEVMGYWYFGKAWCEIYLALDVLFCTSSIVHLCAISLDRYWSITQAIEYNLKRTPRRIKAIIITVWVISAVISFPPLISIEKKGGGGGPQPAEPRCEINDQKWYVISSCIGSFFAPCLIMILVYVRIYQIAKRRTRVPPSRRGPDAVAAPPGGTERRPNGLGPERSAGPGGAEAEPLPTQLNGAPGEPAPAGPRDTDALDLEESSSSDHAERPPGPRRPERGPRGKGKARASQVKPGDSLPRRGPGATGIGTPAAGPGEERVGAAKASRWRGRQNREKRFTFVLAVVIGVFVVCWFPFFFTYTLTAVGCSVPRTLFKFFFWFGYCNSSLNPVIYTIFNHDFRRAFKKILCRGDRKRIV
Procedure: (§1) Methods—Binding Assays: In vitro binding assays were performed using human recombinant receptors expressed in mammalian cell lines. Receptors were expressed in either HEK-293 or CHO cells depending on the target, and assay conditions (radioligand, concentration, nonspecific competitor, temperature, and incubation time) were optimized for each receptor. All assays were conducted in triplicate, and specific binding was quantified by scintillation counting as the detection method for each listed assay.
(§2) Specific binding was expressed as a percentage of control-specific binding, and percent inhibition was calculated using the formula in Ex. 8 above. Half-maximal inhibitory concentrations (IC50) were determined by non-linear regression analysis of the inhibition curves using the Hill equation (see Ex. 8). Inhibition constants (Ki) were calculated using the Cheng-Prusoff equation (see Ex. 8). KD values used in these calculations had been previously established for each receptor under the assay conditions (see Table 6). Data analysis was performed using software developed at Cerep and validated against SigmaPlot 4.0 for Windows.

[2] = molecular target: T2, beta1 (h) (Homo sapiens, UniProt P08588); assay: Radioligand binding beta1 (h) (agonist radioligand), [^3H](−)CGP 12177, HEK-293 cells
T2 construct: expressed in transfected cells; host or cells: HEK-293 cells
Procedure: as §1, §2

[3] = molecular target: T3, kappa (KOP) (h) (Homo sapiens, UniProt P41145); assay: Radioligand binding kappa (KOP) (h) (agonist radioligand), [^3H]U69593, RBL cells; conditions: kappa (h) (KOP) (agonist radiolig.)
T3 construct: expressed in transfected cells; host or cells: RBL cells

[4] = molecular target: T4, 5-HT1B (h) (Homo sapiens, UniProt P28222); assay: Radioligand binding 5-HT1B (h) (antagonist radioligand), [^3H]GR125743, Chem-1 RBL cells
T4 construct: expressed in transfected cells; host or cells: Chem-1 RBL cells

[5] = molecular target: T5, Acetylcholinesterase (h) (Homo sapiens, UniProt P22303); assay: Enzyme assay Acetylcholinesterase (h), photometry; type: biochemical
T5 construct: purchased Eurofins Discovery (contract assay)
Procedure: Methods—Enzyme and Uptake Assays: In vitro enzyme and uptake assays were conducted by Eurofins Discovery using human recombinant enzymes expressed in various mammalian and insect cell lines. Enzymatic activity was measured using appropriate substrates or tracers under conditions optimized for each target, as detailed in Table 7. Reactions were incubated at room temperature for a defined duration and terminated according to established protocols. The measured components (either enzymatic products or remaining substrate) were quantified using fluorimetry, photometry, scintillation counting, or LANCE technology, depending on the assay. Assay-specific parameters, including substrate identity, cell line source, incubation time, and detection method, are provided in Table 7.
All measurements were performed in technical replicates to ensure reproducibility and data quality.
Results were expressed both as a percentage of control-specific activity and as percent inhibition of control-specific activity. Percent activity was calculated as (measured specific activity/control specific activity)×100, and percent inhibition as 100−[(measured specific activity/control specific activity)×100], based on values obtained in the presence of test compounds. IC50 and EC50 values, along with Hill coefficients (nH), were determined by nonlinear regression analysis of inhibition or concentration-response curves generated from mean replicate values. Hill curve fitting was performed as previously described using software developed at Cerep and validated against SigmaPlot® 4.0 for Windows® (© 1997 by SPSS Inc.).

[6] = molecular target: 5-HT2B (Homo sapiens, UniProt P41595); assay: IP-One HTRF IP-1 accumulation functional assay, 5-HT2B/HEK293; type: cell-based; set-up: host or cells: HEK293
Procedure: Methods (5-HT2B IP-One Functional Activity Assays): Intracellular accumulation of IP-1 was measured using an IP-One HTRF) assay kit (Cat. #62IPAPEJ, Cisbio) at WuXi AppTec Co. Ltd. (Hong Kong) Discovery Biology Unit according to their standard protocols. Briefly, 5-HT2B/HEK293 were plated in a 384-well plate and incubated at 37° C. and 5% CO2 overnight. The reference compounds and screening compounds were 3.16-fold serially diluted in 100% DMSO for 10 points using Bravo. 70 nL of compounds were added to the cell plate using Echo555. Incubated for 60 minutes at 37° C. Added 3 μL of IP-1 d2 Reagent working solution and 3 μL of IP-1 Tb Cryptate Antibody working solution to all wells. The plates were incubated for 1 hour at room temperature and read on for fluorescence at 620 nm and 665 nm on an EnVision Multimode Plate Reader (PerkinElmer). The ratio of the acceptor and donor emission signals (665/620) were calculated for each individual well and substituted into the standard curve to obtain the log concentration of IP level. After converting to the antilog base IP-1, the average background control signal was subtracted from each well and values were normalized to the maximal response of 5-HT at 3 μM (100%). % MAX was calculated by taking the average normalized maximal response at the highest concentration tested. Data were analyzed using the four-parameter nonlinear regression curve-fitting function in GraphPad Prism 5 (GraphPad Software, San Diego, CA) to generate potency (EC50) values. Parameter constraint “Top=100” was used in the analysis of 5-HT2B IP-1. Represented plots show normalized IP-1 values versus compound concentrations; the corresponding numerical data are parameter estimates for the concentration-response curve using the 4-parameter nonlinear regression curve-fitting function in GraphPad Prism 10. “Top=100” parameter constraint was not enabled for the represented plot analysis.

T5 sequence (P22303 32-614): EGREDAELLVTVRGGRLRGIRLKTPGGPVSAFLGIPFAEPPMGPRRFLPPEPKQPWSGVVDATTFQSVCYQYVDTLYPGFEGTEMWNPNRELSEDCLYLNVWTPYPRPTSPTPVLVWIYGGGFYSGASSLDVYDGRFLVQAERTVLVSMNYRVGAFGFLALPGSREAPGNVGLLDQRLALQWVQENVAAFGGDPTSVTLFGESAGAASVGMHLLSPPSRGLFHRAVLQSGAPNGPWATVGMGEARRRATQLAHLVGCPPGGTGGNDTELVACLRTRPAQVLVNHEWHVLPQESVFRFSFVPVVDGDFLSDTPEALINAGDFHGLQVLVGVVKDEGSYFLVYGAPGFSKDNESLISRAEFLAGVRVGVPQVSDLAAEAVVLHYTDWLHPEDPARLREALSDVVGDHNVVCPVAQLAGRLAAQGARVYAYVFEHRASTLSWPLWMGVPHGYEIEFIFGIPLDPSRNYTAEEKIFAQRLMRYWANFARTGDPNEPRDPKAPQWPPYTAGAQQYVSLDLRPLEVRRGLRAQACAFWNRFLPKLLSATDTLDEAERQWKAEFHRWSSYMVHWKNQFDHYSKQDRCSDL
5-HT2B, sequence (P41595 whole entry): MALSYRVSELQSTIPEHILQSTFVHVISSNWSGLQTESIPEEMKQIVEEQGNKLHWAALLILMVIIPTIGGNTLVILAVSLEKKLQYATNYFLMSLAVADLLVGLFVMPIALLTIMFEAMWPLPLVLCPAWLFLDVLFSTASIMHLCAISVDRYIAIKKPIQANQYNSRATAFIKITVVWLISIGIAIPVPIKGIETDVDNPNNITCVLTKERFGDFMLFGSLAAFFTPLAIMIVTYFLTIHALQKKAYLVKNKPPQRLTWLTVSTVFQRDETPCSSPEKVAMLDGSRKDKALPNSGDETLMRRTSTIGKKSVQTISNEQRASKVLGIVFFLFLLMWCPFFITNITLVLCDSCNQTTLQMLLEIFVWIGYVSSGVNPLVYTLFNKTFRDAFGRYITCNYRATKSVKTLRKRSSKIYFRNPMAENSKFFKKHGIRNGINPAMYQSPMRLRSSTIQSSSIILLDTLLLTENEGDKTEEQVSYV
T3 sequence (P41145 whole entry): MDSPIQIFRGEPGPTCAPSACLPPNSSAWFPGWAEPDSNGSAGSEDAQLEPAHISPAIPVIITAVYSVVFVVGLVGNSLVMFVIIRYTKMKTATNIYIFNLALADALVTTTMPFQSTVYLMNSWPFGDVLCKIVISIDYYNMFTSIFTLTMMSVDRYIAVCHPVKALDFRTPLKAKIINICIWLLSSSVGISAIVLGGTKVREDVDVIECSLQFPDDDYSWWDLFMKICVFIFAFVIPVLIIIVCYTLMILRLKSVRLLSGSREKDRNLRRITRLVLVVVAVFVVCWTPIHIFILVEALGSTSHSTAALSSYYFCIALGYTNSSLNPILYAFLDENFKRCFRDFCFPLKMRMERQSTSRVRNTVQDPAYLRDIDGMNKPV
T2 sequence (P08588 whole entry): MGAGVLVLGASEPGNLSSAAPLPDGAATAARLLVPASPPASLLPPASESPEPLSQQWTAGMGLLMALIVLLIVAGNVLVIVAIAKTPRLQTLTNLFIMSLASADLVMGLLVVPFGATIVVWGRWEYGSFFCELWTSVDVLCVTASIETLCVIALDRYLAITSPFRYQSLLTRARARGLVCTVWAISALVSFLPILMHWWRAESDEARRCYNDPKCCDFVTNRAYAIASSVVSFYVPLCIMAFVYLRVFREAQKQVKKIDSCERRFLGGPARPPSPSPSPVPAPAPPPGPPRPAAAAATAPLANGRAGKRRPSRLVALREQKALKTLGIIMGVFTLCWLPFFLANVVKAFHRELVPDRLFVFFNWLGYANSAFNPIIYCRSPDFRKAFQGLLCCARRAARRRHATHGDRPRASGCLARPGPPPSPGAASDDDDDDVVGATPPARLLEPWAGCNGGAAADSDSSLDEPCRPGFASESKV
T4 sequence (P28222 whole entry): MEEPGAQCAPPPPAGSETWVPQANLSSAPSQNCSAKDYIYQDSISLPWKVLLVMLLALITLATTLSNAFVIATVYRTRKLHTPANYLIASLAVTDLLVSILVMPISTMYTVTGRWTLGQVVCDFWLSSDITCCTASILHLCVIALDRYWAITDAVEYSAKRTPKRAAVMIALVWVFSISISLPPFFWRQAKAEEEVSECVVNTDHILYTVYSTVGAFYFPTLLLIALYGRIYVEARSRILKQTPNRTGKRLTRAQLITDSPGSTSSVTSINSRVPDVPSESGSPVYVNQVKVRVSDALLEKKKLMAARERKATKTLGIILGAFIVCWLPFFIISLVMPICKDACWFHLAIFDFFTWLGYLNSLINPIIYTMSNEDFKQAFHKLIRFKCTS

| Compound | Mean Percent Inhibition of Control Specific Binding [1] [%] | Mean Percent Inhibition of Control Specific Binding [2] [%] | Mean Percent Inhibition of Control Specific Binding [3] [%] | Mean Percent Inhibition of Control Specific Binding [4] [%] | Mean Percent Inhibition of Control Specific Binding [5] [%] | EC50 [6] [nM] |
| --- | --- | --- | --- | --- | --- | --- |
| COCCc1cc(CCN)c(OC)cc1Br [Compound 2CB-5ME, reference compound] | 73.0 | 26.2 | 11.2 | 91.4 | −3.2 | 131 |
| COCc1cc(CCN)c(OC)cc1CC(C)C [Compound 2CiBu-5MM, 2-[4-isobutyl-2-methoxy-5-(methoxymethyl)phenyl]ethanamine] | 88.5 | 36.0 | 29.8 | 57.3 | 8.0 | 825 |
| COCc1cc(CCN)c(O)cc1CC(C)C [2CiBu-2OH-5MM, 2-(2-aminoethyl)-5-isobutyl-4-(methoxymethyl)phenol] | 79.4 | 84.5 | 28.2 | 12.6 | 4.4 | – |
| COCc1cc(CCN)c(OC)cc1Br [Compound 2CB-5MM, 2-(4-bromo-2-methoxy-5-(methoxymethyl)phenyl)ethan-1-amine] | 80.2 | 19 | 11.4 | 74.2 | −3.5 | 78.6 |
